Patent US9611278B2 (Merck Sharp & Dohme Corp., priority 2013, dated 2017)

Key:
[1] = test system: Spontaneously hypertensive rats (SHR); experiment: Acute Efficacy in Spontaneously Hypertensive Rats (SHR); assay type: in vivo, rat; details: single oral dose, P.O. 1 mpk
Description: Spontaneously hypertensive rats (SHR, male, Charles River) were implanted with DSI TA11PA-C40 telemetry device (Data Sciences, Inc., St. Paul, Minn.) under isoflurane or ketamine/metomidine anesthesia. The telemetry unit catheter was inserted into the descending aorta via the femoral artery and the telemetry device was implanted subcutaneously in the left flank area. Animals were allowed to recover from surgery for 14 days before the start of any studies. Blood pressure, heart rate, and activity signals from conscious, freely moving rats were recorded continuously for 30 seconds every 10 min. On the day prior to administration of compound, a single oral dose of vehicle (10% transcutol/20% Cremophor/70% water) was administered to all animals to establish baseline control data. The blood pressure lowering efficacy of compound (PO) or vehicle was evaluated following a single oral gavage. Data were collected as hourly averages, and changes in blood pressure were calculated by subtracting control baseline data on an hourly basis. Animals were maintained on normal diet with a 12 hour light-dark cycle.
Maximum peak decreases of systolic blood pressure (SBP) in SHR at a particular P.O. dose (mpk milligrams per kilogram) for the following representative compounds are provided in Table 9. Category A=SBP in SHRs <15 mmHg; Category B=SBP in SHRs 15-25 mmHg; Category C=SBP in SHRs >25 mmHg

[2] = target: T1, sGC α1/β1 heterodimer stably expressed in CHO-K1 cells (CHO-K1/sGC) (Homo sapiens, UniProt Q02108+Q02153); experiment: Cell-based sGC Functional Assay (CASA Assay); details: for Emax: CHO-K1, activation as percentage of maximum cGMP production of Compound A (set to 100%), read-out: % Act.; for EC50: inflection point of cGMP generation in CHO-K1/sGC cells, 4P fit, 1 hr at 37° C., read-out: IP
T1 construct: expressed in transfected cells
T1 sequence (Q02108 1-690): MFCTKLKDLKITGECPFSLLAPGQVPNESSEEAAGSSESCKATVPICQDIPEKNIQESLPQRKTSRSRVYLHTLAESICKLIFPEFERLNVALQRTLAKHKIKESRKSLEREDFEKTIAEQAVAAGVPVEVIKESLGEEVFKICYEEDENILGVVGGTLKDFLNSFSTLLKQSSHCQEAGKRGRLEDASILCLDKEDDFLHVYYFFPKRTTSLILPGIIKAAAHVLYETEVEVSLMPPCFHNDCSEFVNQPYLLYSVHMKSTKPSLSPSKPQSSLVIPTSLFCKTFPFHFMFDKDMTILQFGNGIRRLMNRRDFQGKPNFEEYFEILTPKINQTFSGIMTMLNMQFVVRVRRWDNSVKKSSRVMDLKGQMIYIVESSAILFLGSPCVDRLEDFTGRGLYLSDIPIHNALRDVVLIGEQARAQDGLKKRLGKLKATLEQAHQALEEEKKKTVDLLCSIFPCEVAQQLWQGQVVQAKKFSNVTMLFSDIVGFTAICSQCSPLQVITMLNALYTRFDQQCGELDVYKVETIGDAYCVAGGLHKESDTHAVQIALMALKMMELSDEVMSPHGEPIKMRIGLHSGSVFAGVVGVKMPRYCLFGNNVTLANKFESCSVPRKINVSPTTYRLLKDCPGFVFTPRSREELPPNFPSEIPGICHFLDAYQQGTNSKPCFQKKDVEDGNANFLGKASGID
T1 sequence (Q02153 1-619): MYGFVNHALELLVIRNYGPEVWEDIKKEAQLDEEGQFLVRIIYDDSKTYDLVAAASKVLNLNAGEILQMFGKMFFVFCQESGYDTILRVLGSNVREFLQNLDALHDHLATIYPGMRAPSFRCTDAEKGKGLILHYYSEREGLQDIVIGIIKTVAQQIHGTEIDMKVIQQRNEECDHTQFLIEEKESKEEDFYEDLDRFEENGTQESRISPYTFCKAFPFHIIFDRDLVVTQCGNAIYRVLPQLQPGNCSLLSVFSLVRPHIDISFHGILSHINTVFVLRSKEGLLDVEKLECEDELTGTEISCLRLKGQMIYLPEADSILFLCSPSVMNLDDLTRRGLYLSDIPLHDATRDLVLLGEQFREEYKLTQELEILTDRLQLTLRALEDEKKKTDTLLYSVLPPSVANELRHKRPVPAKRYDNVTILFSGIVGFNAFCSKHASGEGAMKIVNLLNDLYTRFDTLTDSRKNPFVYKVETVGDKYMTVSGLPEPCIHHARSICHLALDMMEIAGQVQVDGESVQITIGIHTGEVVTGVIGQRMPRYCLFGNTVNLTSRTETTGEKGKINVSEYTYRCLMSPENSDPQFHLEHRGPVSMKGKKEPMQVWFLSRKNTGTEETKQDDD
In short: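 CHO-K1 cells stably expressing human sGC α1/β1 were incubated with compound for 1 h at 37 °C in buffer with 0.5 mM IBMX and 2.5% DMSO, with or without 1 μM DETA-NO. Intracellular cGMP was read by HTRF and expressed as percentage of maximal activation by reference activator Compound A. Values came from a 4-parameter fit.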

Compound: [2H]C([2H])([2H])n1ncc2c(-c3nc(N)c4c(n3)NC(=O)C4(c3nnc(C)o3)C3CC3)nc(CCC(F)(F)C(F)(F)F)nc21 (centres unmarked) [Example 40, 4-Amino-5-cyclopropyl-5-(5-methyl-1,3,4-oxadiazol-2-yl)-2-(1-(methyl-d3)-6-(3,3,4,4,4-pentafluorobutyl)-1H-pyrazolo[3,4-d]pyrimidin-4-yl)-5,7-dihydro-6H-pyrrolo[2,3-d]pyrimidin-6-one]
- Category: maximum peak decrease of systolic blood pressure (SBP) in SHR [1]: C (Category C=SBP in SHRs >25 mmHg)

Compound: CCC1(c2nnc(C3CC3)o2)C(=O)Nc2nc(-c3nc(CCC(F)(F)C(F)(F)F)nc4c3cnn4C)nc(N)c21 (centres unmarked) [Example 53, 4-Amino-5-(5-cyclopropyl-1,3,4-oxadiazol-2-yl)-5-ethyl-2-(1-methyl-6-(3,3,4,4,4-pentafluorobutyl)-1H-pyrazolo[3,4-d]pyrimidin-4-yl)-5,7-dihydro-6H-pyrrolo[2,3-d]pyrimidin-6-one]
- Emax [2]: 165%
- EC50 [2]: 280 nM

Compound: Cn1ncc2c(-c3nc(N)c4c(n3)NC(=O)C4(C)c3cn(C4CC4)nn3)nc(CCC(F)(F)C(F)(F)F)nc21 (centres unmarked) [Example 59, 4-Amino-5-(1-cyclopropyl-1H-1,2,3-triazol-4-yl)-5-methyl-2-(1-methyl-6-(3,3,4,4,4-pentafluorobutyl)-1H-pyrazolo[3,4-d]pyrimidin-4-yl)-5,7-dihydro-6H-pyrrolo[2,3-d]pyrimidin-6-one]
- Emax [2]: 117%
- EC50 [2]: 29 nM

Compound: CC(C)n1ncc(C2(C)C(=O)Nc3nc(-c4nc(CCC(F)(F)C(F)(F)F)nc5c4cnn5C)nc(N)c32)n1 (centres unmarked) [Example 61, 4-Amino-5-(2-isopropyl-2H-1,2,3-triazol-4-yl)-5-methyl-2-(1-methyl-6-(3,3,4,4,4-pentafluorobutyl)-1H-pyrazolo[3,4-d]pyrimidin-4-yl)-5,7-dihydro-6H-pyrrolo[2,3-d]pyrimidin-6-one]
- Emax [2]: 110%
- EC50 [2]: 269 nM

Compound: [2H]C([2H])([2H])n1ncc2c(-c3nc(N)c4c(n3)NC(=O)C4(C)c3cn(CC)nn3)nc(CCC(F)(F)C(F)(F)F)nc21 (centres unmarked) [Example 64, 4-Amino-5-(1-ethyl-1H-1,2,3-triazol-4-yl)-5-methyl-2-(1-(methyl-d3)-6-(3,3,4,4,4-pentafluorobutyl)-1H-pyrazolo[3,4-d]pyrimidin-4-yl)-5,7-dihydro-6H-pyrrolo[2,3-d]pyrimidin-6-one]
- Emax [2]: 120%
- EC50 [2]: 114 nM

Compound: Cn1ncc2c(-c3nc(N)c4c(n3)NC(=O)C4(C)c3cn(CC4CC4)nn3)nc(CCC(F)(F)C(F)(F)F)nc21 (centres unmarked) [Example 65, 4-Amino-5-(1-(cyclopropylmethyl)-1H-1,2,3-triazol-4-yl)-5-methyl-2-(1-methyl-6-(3,3,4,4,4-pentafluorobutyl)-1H-pyrazolo[3,4-d]pyrimidin-4-yl)-5,7-dihydro-6H-pyrrolo[2,3-d]pyrimidin-6-one]
- Emax [2]: 111%
- EC50 [2]: 169 nM

Compound: CC(C)Cn1cc(C2(C)C(=O)Nc3nc(-c4nc(CCC(F)(F)C(F)(F)F)nc5c4cnn5C)nc(N)c32)nn1 (centres unmarked) [Example 70, 34-Amino-5-(1-isobutyl-1H-1,2,3-triazol-4-yl)-5-methyl-2-(1-methyl-6-(3,3,4,4,4-pentafluorobutyl)-1H-pyrazolo[3,4-d]pyrimidin-4-yl)-5,7-dihydro-6H-pyrrolo[2,3-d]pyrimidin-6-one]
- Emax [2]: 132%
- EC50 [2]: 294 nM

Compound: CCn1ncc(C2(C)C(=O)Nc3nc(-c4nc(CCC(F)(F)C(F)(F)F)nc5c4cnn5C)nc(N)c32)n1 (centres unmarked) [Example 79, 4-Amino-5-(2-ethyl-2H-1,2,3-triazol-4-yl)-5-methyl-2-(1-methyl-6-(3,3,4,4,4-pentafluorobutyl)-1H-pyrazolo[3,4-d]pyrimidin-4-yl)-5,7-dihydro-6H-pyrrolo[2,3-d]pyrimidin-6-one]
- Emax [2]: 169%
- EC50 [2]: 491 nM

Compound: Cn1ncc(C2(C)C(=O)Nc3nc(-c4nc(CCC(F)(F)C(F)(F)F)nc5c4cnn5C)nc(N)c32)n1 (centres unmarked) [Example 80, 4-Amino-5-methyl-5-(2-methyl-2H-1,2,3-triazol-4-yl)-2-(1-methyl-6-(3,3,4,4,4-pentafluorobutyl)-1H-pyrazolo[3,4-d]pyrimidin-4-yl)-5,7-dihydro-6H-pyrrolo[2,3-d]pyrimidin-6-one]
- Emax [2]: 90%
- EC50 [2]: 408 nM

Compound: CC(C)n1cc(C2(C)C(=O)Nc3nc(-c4nc(CCC(F)(F)C(F)(F)F)nc5c4cnn5C)ncc32)nn1 (centres unmarked) [Example 81]
- Emax [2]: 102%
- EC50 [2]: 620 nM

Compound: [2H]C([2H])([2H])n1ncc2c(-c3nc(N)c4c(n3)NC(=O)C4(c3nc(CC(C)(C)C(=O)OCC)cs3)C3CC3)nc(CCC(F)(F)C(F)(F)F)nc21 (centres unmarked) [Example 82, Ethyl 3-(2-(4-amino-5-cyclopropyl-2-(1-(methyl-d3)-6-(3,3,4,4,4-pentafluorobutyl)-1H-pyrazolo[3,4-d]pyrimidin-4-yl)-6-oxo-6,7-dihydro-5H-pyrrolo[2,3-d]pyrimidin-5-yl)thiazol-4-yl)-2,2-dimethylpropanoate]
- Emax [2]: 78%
- EC50 [2]: 509 nM

Compound: [2H]C([2H])([2H])n1ncc2c(-c3nc(N)c4c(n3)NC(=O)C4(c3nc(CC(C)(C)C(=O)O)cs3)C3CC3)nc(CCC(F)(F)C(F)(F)F)nc21 (centres unmarked) [Example 83, 3-(2-(4-Amino-5-cyclopropyl-2-(1-(methyl-d3)-6-(3,3,4,4,4-pentafluorobutyl)-1H-pyrazolo[3,4-d]pyrimidin-4-yl)-6-oxo-6,7-dihydro-5H-pyrrolo[2,3-d]pyrimidin-5-yl)thiazol-4-yl)-2,2-dimethylpropanoic acid]
- Emax [2]: 80%
- EC50 [2]: 797 nM

Compound: Cn1ccc2c(-c3nc(N)c4c(n3)NC(=O)C4(C)c3ccc(F)cn3)nc(CCC(F)(F)C(F)(F)F)nc21 (centres unmarked) [Example 85, 4-Amino-5-(5-fluoropyridin-2-yl)-5,7′-dimethyl-2′-(3,3,4,4,4-pentafluorobutyl)-5,7-dihydro-6H,7′H-[2,4′-bipyrrolo[2,3-d]pyrimidin]-6-one]
- Emax [2]: 108%
- EC50 [2]: 112 nM

Compound: Cc1nnc(C2(C)C(=O)Nc3nc(-c4nc(CCC(F)(F)C(F)(F)F)nc5c4ccn5C)nc(N)c32)o1 (centres unmarked) [Example 87, 4-Amino-5,7′-dimethyl-5-(5-methyl-1,3,4-oxadiazol-2-yl)-2′-(3,3,4,4,4-pentafluorobutyl)-5,7-dihydro-6H,7′H-[2,4′-bipyrrolo[2,3-d]pyrimidin]-6-one]
- Emax [2]: 86%
- EC50 [2]: 378 nM

Compound: Cn1ccc2c(-c3nc(N)c4c(n3)NC(=O)C4(c3nnc(C4CC4)o3)C3CC3)nc(CCC(F)(F)C(F)(F)F)nc21 (centres unmarked) [Example 88, 4-Amino-5-cyclopropyl-5-(5-cyclopropyl-1,3,4-oxadiazol-2-yl)-7′-methyl-2′-(3,3,4,4,4-pentafluorobutyl)-5,7-dihydro-6H,7′H-[2,4′-bipyrrolo[2,3-d]pyrimidin]-6-one]
- Emax [2]: 109%
- EC50 [2]: 715 nM
